The values that follow come from patent US9434711B2 (Janssen Pharmaceutica, NV, priority 2007, dated 2016).

pIC50: −log10 of the molar value.

This experiment addresses canine TRPM8 (Canis lupus familiaris, UniProt Q1A7N1). Nature of the experiment: In Vitro Canine TRPM8 Functional Assay (Ca2+ fluorescence, icilin activation). The format is cell-based. The settings on record: for pIC50: HEK293 cells stably expressing canine TRPM8, icilin activation, eight-point dose-response, read-out: IC50; for inhibition at 0.2 µM: read-out: % Inh @ 0.2. Put shortly:
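Eight-point dose-response curves in quadruplicate gave EC50 or IC50 values from a Ca2+-sensitive dye assay in HEK293 cells stably carrying canine TRPM8. Icilin, dosed near its 80% maximal level, followed a 5 min compound exposure.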

Setting [1] is: compound at 0.2 μM, canine TRPM8, icilin activation.

Chain of canine TRPM8 (Q1A7N1 1-1104): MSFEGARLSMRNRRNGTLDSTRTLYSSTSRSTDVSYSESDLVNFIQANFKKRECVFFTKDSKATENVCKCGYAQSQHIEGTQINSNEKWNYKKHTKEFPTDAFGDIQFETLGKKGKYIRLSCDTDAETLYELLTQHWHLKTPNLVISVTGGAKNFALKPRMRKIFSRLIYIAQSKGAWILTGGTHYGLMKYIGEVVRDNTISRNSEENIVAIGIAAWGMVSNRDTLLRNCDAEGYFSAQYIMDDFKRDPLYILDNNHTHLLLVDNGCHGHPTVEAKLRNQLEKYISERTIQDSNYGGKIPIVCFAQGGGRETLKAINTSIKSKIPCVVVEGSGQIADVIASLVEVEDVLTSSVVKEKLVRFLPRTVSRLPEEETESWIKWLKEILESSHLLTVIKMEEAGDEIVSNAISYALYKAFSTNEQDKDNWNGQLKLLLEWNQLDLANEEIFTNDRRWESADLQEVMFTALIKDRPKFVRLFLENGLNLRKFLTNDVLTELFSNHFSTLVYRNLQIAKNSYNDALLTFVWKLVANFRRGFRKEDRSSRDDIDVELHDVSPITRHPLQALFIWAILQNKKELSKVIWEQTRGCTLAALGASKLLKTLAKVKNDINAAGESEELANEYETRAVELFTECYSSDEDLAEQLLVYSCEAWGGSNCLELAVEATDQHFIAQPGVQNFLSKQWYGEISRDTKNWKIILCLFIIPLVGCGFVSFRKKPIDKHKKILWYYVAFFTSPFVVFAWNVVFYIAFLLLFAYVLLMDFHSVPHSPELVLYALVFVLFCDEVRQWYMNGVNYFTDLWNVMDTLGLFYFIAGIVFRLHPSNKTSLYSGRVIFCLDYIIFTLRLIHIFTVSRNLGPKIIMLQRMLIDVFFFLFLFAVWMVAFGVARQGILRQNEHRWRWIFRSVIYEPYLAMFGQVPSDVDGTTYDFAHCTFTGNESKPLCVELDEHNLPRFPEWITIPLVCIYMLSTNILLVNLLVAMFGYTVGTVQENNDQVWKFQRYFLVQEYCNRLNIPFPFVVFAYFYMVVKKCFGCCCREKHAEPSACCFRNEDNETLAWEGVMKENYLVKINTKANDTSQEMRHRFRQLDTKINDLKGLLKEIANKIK

With `O=C(O)c1ccc(S(=O)(=O)N(Cc2ccc(F)c(C(F)(F)F)c2)c2sc3ccccc3c2Br)c(F)c1` [Compound 711, N-(3-Bromo-benzo[b]thiophen-2-yl)-N-(4-fluoro-3-trifluoromethyl-benzyl)-2-fluoro-4-carboxy-benzenesulfonamide], the pIC50 was 8.70. Further, under setting [1], the inhibition at 0.2 µM stood at 102%.

In the case of `O=c1[nH]c(-c2ccc(S(=O)(=O)N(CCCCC(F)(F)F)c3sc4ccccc4c3Br)cc2)ns1` [Compound 712, N-(3-Bromo-benzo[b]thiophen-2-yl)-N-(5,5,5-trifluoro-pentyl)-4-(5-oxo-4,5-dihydro-[1,2,4]thiadiazol-3-yl)-benzenesulfonamide], the pIC50 is 8.40. Besides, under setting [1], the inhibition at 0.2 µM was 102%.

In the case of `CS(=O)(=O)Nc1cccc(S(=O)(=O)N(CCC(F)(F)F)c2cc3ccccc3s2)c1` [Compound 713, N-(Benzo[b]thiophen-2-yl)-3-methanesulfonylamino-N-(3,3,3-trifluoro-propyl)-benzenesulfonamide], the inhibition at 0.2 µM under setting [1] was determined as 47%.

Turning to `CS(=O)(=O)Nc1cccc(S(=O)(=O)N(CCC(F)(F)F)c2sc3ccccc3c2Cl)c1` [Compound 714, N-(3-Chloro-benzo[b]thiophen-2-yl)-3-methanesulfonylamino-N-(3,3,3-trifluoro-propyl)-benzenesulfonamide], the pIC50 was 7.54. The inhibition at 0.2 µM under setting [1] was 96%.

In the case of `CS(=O)(=O)Nc1cccc(S(=O)(=O)N(CCC(F)(F)F)c2sc3ccccc3c2Br)c1` [Compound 715, N-(3-Bromo-benzo[b]thiophen-2-yl)-3-methanesulfonylamino-N-(3,3,3-trifluoro-propyl)-benzenesulfonamide], the pIC50 is 7.62. Moreover, under setting [1], the inhibition at 0.2 µM was 101%.

For `CS(=O)(=O)Nc1ccc(S(=O)(=O)N(CCC2CC2)c2sc3ccccc3c2Cl)cc1` [Compound 716, N-(3-Chloro-benzo[b]thiophen-2-yl)-N-(2-cyclopropyl-ethyl)-4-methanesulfonylamino-benzenesulfonamide], the pIC50 is 8.05. Also, under setting [1], the inhibition at 0.2 µM stood at 101%.

As for `CS(=O)(=O)Nc1ccc(S(=O)(=O)N(CCC2CC2)c2sc3ccccc3c2Br)cc1` [Compound 717, N-(3-Bromo-benzo[b]thiophen-2-yl)-N-(2-cyclopropyl-ethyl)-4-methanesulfonylamino-benzenesulfonamide], the pIC50 is 8.30. For the same compound, the inhibition at 0.2 µM under setting [1] is 102%.

Regarding `O=S(=O)(Nc1ccc(S(=O)(=O)N(CCC2CC2)c2sc3ccccc3c2Cl)cc1)C1CC1` [Compound 718, N-(3-Chloro-benzo[b]thiophen-2-yl)-4-cyclopropanesulfonylamino-N-(2-cyclopropyl-ethyl)-benzenesulfonamide], the pIC50 was 7.41. For the same compound, the inhibition at 0.2 µM under setting [1] was 96%.

Consider `O=S(=O)(Nc1ccc(S(=O)(=O)N(CCC2CC2)c2sc3ccccc3c2Br)cc1)C1CC1` [Compound 719, N-(3-Bromo-benzo[b]thiophen-2-yl)-4-cyclopropanesulfonylamino-N-(2-cyclopropyl-ethyl)-benzenesulfonamide], for which the pIC50 was 7.64. Moreover, the inhibition at 0.2 µM under setting [1] stood at 100%.

For `Cc1c(N(CCCCC(F)(F)F)S(=O)(=O)c2nc3ccccc3[nH]2)sc2ccccc12` [Compound 720, N-(3-Methyl-benzo[b]thiophen-2-yl)-N-(5,5,5-trifluoro-pentyl)-1H-benzimidazole-2-sulfonamide], the inhibition at 0.2 µM under setting [1] is 52%.

Regarding `Cc1c(N(CCCCC(F)(F)F)S(=O)(=O)c2cccc3nccnc23)sc2ccccc12` [Compound 721, N-(3-Methyl-benzo[b]thiophen-2-yl)-N-(5,5,5-trifluoro-pentyl)-quinoxalin-5-yl-sulfonamide], the pIC50 is 8.38. Further, the inhibition at 0.2 µM under setting [1] was 102%.

Turning to `Cc1c(N(Cc2ccc(F)c(C(F)(F)F)c2)S(=O)(=O)c2nc3ccccc3n2C)sc2ccccc12` [Compound 722, N-(3-Methyl-benzo[b]thiophen-2-yl)-N-(4-fluoro-3-trifluoromethyl-benzyl)-1-methyl-1H-benzimidazole-2-sulfonamide], the inhibition at 0.2 µM under setting [1] worked out at 28%.

As for `Cc1c(N(Cc2ccc(F)c(C(F)(F)F)c2)S(=O)(=O)c2cccc3nccnc23)sc2ccccc12` [Compound 723, N-(3-Methyl-benzo[b]thiophen-2-yl)-N-(4-fluoro-3-trifluoromethyl-benzyl)-quinoxalin-5-yl-sulfonamide], the pIC50 was 7.74. Under setting [1], the inhibition at 0.2 µM came to 102%.

For `Cc1c(N(Cc2ccc(F)c(C(F)(F)F)c2)S(=O)(=O)CCC=O)sc2ccccc12` [Compound 724, N-(4-Fluoro-3-trifluoromethyl-benzyl)-N-(3-methyl-benzo[b]thiophen-2-yl)-3-oxo-propane-1-sulfonamide], the pIC50 was 8.28. Besides, the inhibition at 0.2 µM under setting [1] turned out to be 102%.

For the compound `Cc1c(N(Cc2ccc(F)c(C(F)(F)F)c2)S(=O)(=O)CCC(C)(C)O)sc2ccccc12` [Compound 725, N-(4-Fluoro-3-trifluoromethyl-benzyl)-N-(3-methyl-benzo[b]thiophen-2-yl)-3-hydroxy-3-methyl-butane-1-sulfonamide], the pIC50 is 8.11. Moreover, the inhibition at 0.2 µM under setting [1] was found to be 102%.

`Cc1c(N(CCC2CC2)S(=O)(=O)c2nc3ccccc3[nH]2)sc2ccccc12` [Compound 726, N-(Cyclopropyl-ethyl)-N-(3-methyl-benzo[b]thiophen-2-yl)-1H-benzimidazole-2-sulfonamide]: the pIC50 is 7.04. Besides, under setting [1], the inhibition at 0.2 µM amounted to 69%.

`Cc1c(N(CCCCC(F)(F)F)S(=O)(=O)c2nc3ccccc3[nH]2)sc2ccccc12` [Compound 727, N-(3-Methyl-benzo[b]thiophen-2-yl)-N-(5,5,5,-trifluoro-pentyl)-1H-benzimidazole-2-sulfonamide]: the “% Inh @ 0.2 (μM)” value under setting [1] worked out at 16%.

With `Cc1c(N(Cc2ccc(F)c(C(F)(F)F)c2)S(=O)(=O)c2nc3ccccc3[nH]2)sc2ccccc12` [Compound 728, N-(3-Methyl-benzo[b]thiophen-2-yl)-N-(4-fluoro-3-trifluoromethyl-benzyl)-1H-benzimidazole-2-sulfonamide], the inhibition at 0.2 µM under setting [1] amounted to 44%.

For the compound `Cc1c(N(Cc2ccc(OC(F)(F)F)cc2)S(=O)(=O)c2nc3ccccc3[nH]2)sc2ccccc12` [Compound 729, N-(3-Methyl-benzo[b]thiophen-2-yl)-N-(4-trifluoromethoxy-benzyl)-1H-benzimidazole-2-sulfonamide], the inhibition at 0.2 µM under setting [1] turned out to be 75%.

With `CC(=O)c1c(N(Cc2ccc(F)cc2)S(=O)(=O)c2ccc(Br)cc2)sc2ccccc12` [Compound 730, N-(3-Acetyl-benzo[b]thiophen-2-yl)-4-bromo-N-(4-fluoro-benzyl)benzene-sulfonamide], the pIC50 was 7.63. The inhibition at 0.2 µM under setting [1] was found to be 100%.

Take `CC(=O)c1c(N(Cc2ccc(OC(F)(F)F)cc2)S(=O)(=O)c2ccc(Br)cc2)sc2ccccc12` [Compound 731, N-(3-Acetyl-benzo[b]thiophen-2-yl)-4-bromo-N-(4-(trifluoromethoxy)-benzyl)benzenesulfonamide]: the pIC50 was 7.35. For the same compound, the inhibition at 0.2 µM under setting [1] was determined as 87%.

Regarding `CC(=O)c1c(N(Cc2ccccc2)S(=O)(=O)c2ccc(Br)cc2)sc2ccccc12` [Compound 732, N-(3-Acetyl-benzo[b]thiophen-2-yl)-N-(benzyl)-4-bromobenzenesulfonamide], the pIC50 was 7.88. The inhibition at 0.2 µM under setting [1] is 100%.

Turning to `CC(=O)c1c(N(Cc2ccc(F)c(Cl)c2)S(=O)(=O)c2ccc(Br)cc2)sc2ccccc12` [Compound 733, N-(3-Acetyl-benzo[b]thiophen-2-yl)-4-bromo-N-(3-chloro-4-fluoro-benzyl)benzenesulfonamide], the pIC50 was 7.87. Also, the inhibition at 0.2 µM under setting [1] was determined as 100%.

`CC(C)(O)c1c(N(Cc2ccc(F)cc2)S(=O)(=O)c2ccc(Br)cc2)sc2ccccc12` [Compound 734, N-(4-Fluorobenzyl)-N-(3-(1-hydroxy-1-methyl-ethyl)-benzo[b]thiophen-2-yl)-4-bromo-benzenesulfonamide]: the pIC50 was 8.01. Further, under setting [1], the inhibition at 0.2 µM amounted to 102%.

Regarding `CC(C)(O)c1c(N(Cc2ccc(OC(F)(F)F)cc2)S(=O)(=O)c2ccc(Br)cc2)sc2ccccc12` [Compound 735, N-(3-(1-Hydroxy-1-methyl-ethyl)-benzo[b]thiophen-2-yl)-N-(4-trifluoromethoxybenzyl)-4-bromo-benzenesulfonamide], the pIC50 was 7.57. Further, under setting [1], the inhibition at 0.2 µM was found to be 101%.

With `CC(C)(O)c1c(N(Cc2ccccc2)S(=O)(=O)c2ccc(Br)cc2)sc2ccccc12` [Compound 736, N-(Benzyl)-N-(3-(1-hydroxy-1-methyl-ethyl)-benzo[b]thiophen-2-yl)-4-bromo-benzenesulfonamide], the pIC50 is 7.76. Moreover, under setting [1], the inhibition at 0.2 µM was determined as 101%.

`CC(C)(O)c1c(N(Cc2ccc(F)c(Cl)c2)S(=O)(=O)c2ccc(Br)cc2)sc2ccccc12` [Compound 737, N-(3-Chloro-4-fluorobenzyl)-N-(3-(1-hydroxy-1-methyl-ethyl)-benzo[b]thiophen-2-yl)-4-bromo-benzenesulfonamide]: the pIC50 was 7.52. Besides, the inhibition at 0.2 µM under setting [1] turned out to be 101%.

Regarding `Cc1c(N(CCC2CC2)S(=O)(=O)c2ccc(N(C)C)cc2)sc2ccccc12` [Compound 738, N-(3-Methyl-benzo[b]thiophen-2-yl)-N-(cyclopropyl-ethyl)-4-dimethylamino-benzenesulfonamide], the pIC50 was 8.05. Further, the inhibition at 0.2 µM under setting [1] stood at 102%.

Regarding `CCN(CC)c1ccc(S(=O)(=O)N(CCC2CC2)c2sc3ccccc3c2C)cc1` [Compound 739, N-(3-Methyl-benzo[b]thiophen-2-yl)-N-(cyclopropyl-ethyl)-4-diethylamino-benzenesulfonamide], the pIC50 is 7.63. In addition, the inhibition at 0.2 µM under setting [1] worked out at 90%.

One may read the pIC50 as −log10 of the IC50, conventionally taken in molar units.
